Source: ChEMBL document CHEMBL1909046, “DrugMatrix in vitro pharmacology data”

Legend:
Adenosine receptor A3 = biological target: T1, Adenosine receptor A3 (Homo sapiens, UniProt P0DMS8); format: cell membranes, CHO-K1, Membrane; details: for Ki: read-out: Ki;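 on all read-outs here: radioligand binding assay with AB-MECA serving as the labeled ligand; in other assays of this panel Not Active means under 50% inhibition at 10 µM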
T1 sequence (P0DMS8 whole entry): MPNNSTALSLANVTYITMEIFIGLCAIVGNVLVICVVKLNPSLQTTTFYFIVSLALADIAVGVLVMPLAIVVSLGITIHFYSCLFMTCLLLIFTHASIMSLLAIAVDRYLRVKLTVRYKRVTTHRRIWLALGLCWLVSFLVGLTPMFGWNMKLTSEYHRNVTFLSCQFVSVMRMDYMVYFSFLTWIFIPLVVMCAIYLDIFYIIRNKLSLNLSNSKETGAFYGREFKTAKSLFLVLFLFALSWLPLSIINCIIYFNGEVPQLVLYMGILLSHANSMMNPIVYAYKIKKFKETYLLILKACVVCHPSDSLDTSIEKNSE

[1] = biological target: T2, C-X-C chemokine receptor type 1 (Homo sapiens, UniProt P25024); further: in other assays of this panel Not Active means under 50% inhibition at 10 µM
T2 sequence (P25024 whole entry): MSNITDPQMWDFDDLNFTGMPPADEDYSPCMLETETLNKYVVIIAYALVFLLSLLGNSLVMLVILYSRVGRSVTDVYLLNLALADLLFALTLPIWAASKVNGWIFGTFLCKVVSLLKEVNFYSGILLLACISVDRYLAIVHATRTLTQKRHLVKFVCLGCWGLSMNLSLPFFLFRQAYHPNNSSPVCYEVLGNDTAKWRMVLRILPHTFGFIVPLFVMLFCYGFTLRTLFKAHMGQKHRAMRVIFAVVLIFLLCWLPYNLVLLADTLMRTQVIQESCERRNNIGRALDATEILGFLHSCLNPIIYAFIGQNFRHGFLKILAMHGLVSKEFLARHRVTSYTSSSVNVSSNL

[2] = DRUGMATRIX: Phosphodiesterase PDE3 enzyme inhibition (substrate: [3H]cAMP + cAMP); format: tissue-based, Homo sapiens; details: platelet; Not Active = under 50% inhibition at 10 µM
Vasopressin V1a receptor = Vasopressin V1a receptor (Homo sapiens, UniProt P37288); format: cell membranes, Membrane; details: hek293; further: in other assays of this panel Not Active means under 50% inhibition at 10 µM
Sequence of Vasopressin V1a receptor (P37288 whole entry): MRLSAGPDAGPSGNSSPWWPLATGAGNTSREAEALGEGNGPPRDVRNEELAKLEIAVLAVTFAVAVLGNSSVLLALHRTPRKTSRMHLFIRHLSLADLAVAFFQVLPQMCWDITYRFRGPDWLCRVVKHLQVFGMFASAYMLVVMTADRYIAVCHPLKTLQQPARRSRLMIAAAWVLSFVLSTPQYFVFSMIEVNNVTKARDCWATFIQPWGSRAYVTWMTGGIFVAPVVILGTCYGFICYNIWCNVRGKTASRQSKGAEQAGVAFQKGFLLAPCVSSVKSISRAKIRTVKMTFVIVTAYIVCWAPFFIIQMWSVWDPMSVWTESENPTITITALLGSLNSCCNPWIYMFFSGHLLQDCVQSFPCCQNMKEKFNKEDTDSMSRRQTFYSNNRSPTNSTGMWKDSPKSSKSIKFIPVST

B2 bradykinin receptor = biological target: T3, B2 bradykinin receptor (Homo sapiens, UniProt P30411); format: cell membranes, Membrane; details: chem-1; further: in other assays of this panel Not Active means under 50% inhibition at 10 µM
T3 sequence (P30411 whole entry): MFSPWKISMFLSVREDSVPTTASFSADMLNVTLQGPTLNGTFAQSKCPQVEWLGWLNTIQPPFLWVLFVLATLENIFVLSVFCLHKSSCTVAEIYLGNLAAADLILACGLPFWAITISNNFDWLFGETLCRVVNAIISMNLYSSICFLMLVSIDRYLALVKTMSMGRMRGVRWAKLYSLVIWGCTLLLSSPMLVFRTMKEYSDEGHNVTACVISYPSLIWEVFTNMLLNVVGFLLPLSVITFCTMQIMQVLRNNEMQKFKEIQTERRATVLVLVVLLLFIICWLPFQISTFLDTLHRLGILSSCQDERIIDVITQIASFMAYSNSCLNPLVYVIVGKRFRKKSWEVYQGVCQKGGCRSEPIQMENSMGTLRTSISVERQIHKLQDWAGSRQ

[3] = biological target: Mitogen-activated protein kinase 1 (Homo sapiens, UniProt P28482); assay: DRUGMATRIX: Protein Serine/Threonine Kinase, ERK2 enzyme inhibition (substrate: Myelin Basic Protein); design: species or system Escherichia coli; details: Not Active = under 50% inhibition at 10 µM
Sequence of Mitogen-activated protein kinase 1 (P28482 whole entry): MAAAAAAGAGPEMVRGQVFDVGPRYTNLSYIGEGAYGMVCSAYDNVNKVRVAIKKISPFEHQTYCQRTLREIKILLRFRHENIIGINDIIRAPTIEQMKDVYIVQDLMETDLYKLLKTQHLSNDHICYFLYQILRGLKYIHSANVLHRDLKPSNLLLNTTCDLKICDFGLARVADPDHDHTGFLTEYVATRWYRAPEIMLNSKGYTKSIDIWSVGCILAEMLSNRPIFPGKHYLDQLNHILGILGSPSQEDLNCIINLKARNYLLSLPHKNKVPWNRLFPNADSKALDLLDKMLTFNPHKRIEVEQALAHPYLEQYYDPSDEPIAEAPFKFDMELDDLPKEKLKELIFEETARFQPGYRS

[4] = biological target: Receptor tyrosine-protein kinase erbB-2 (Homo sapiens, UniProt P04626); assay: biochemical; format: cell-based, Insect cells
Sequence of Receptor tyrosine-protein kinase erbB-2 (P04626 whole entry): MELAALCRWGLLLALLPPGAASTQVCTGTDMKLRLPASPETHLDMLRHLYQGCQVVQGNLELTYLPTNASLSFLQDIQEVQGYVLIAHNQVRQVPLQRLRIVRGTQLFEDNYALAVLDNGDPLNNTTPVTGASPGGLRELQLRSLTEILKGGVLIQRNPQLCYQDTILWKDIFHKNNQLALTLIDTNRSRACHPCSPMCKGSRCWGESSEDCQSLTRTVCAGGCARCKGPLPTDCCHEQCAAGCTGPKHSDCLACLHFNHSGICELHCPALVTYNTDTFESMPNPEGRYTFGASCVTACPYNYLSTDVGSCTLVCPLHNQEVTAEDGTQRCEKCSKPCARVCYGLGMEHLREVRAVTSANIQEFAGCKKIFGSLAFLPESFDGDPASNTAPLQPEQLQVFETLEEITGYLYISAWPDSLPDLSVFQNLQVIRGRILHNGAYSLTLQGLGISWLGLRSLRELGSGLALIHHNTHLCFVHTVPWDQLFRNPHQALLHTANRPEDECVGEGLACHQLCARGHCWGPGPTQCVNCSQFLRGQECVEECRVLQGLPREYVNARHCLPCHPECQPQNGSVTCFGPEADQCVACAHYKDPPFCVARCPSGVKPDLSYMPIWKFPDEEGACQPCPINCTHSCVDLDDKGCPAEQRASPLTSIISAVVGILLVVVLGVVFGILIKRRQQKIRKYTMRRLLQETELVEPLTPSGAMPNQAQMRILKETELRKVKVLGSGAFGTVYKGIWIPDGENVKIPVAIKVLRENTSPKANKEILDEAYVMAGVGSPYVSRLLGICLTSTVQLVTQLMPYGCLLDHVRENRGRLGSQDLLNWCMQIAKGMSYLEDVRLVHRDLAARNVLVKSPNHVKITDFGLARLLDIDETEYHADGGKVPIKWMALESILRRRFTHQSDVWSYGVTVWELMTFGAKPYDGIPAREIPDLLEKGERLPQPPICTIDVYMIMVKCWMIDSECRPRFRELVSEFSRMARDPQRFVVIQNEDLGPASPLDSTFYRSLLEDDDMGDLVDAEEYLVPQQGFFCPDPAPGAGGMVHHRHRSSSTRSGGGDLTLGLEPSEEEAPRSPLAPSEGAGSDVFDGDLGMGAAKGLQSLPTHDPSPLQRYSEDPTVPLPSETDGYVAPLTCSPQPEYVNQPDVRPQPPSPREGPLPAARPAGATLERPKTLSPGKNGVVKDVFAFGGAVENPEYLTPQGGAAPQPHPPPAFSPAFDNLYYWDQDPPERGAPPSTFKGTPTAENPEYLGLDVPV

[5] = DRUGMATRIX: Glutamate, AMPA radioligand binding (ligand: [3H] AMPA); format: cell membranes, Rattus norvegicus, Wistar, Cerebral cortex, Membrane; details: Not Active = under 50% inhibition at 10 µM
Caspase-1 = biological target: T4, Caspase-1 (Homo sapiens, UniProt P29466); design: species or system Escherichia coli
T4 sequence (P29466 whole entry): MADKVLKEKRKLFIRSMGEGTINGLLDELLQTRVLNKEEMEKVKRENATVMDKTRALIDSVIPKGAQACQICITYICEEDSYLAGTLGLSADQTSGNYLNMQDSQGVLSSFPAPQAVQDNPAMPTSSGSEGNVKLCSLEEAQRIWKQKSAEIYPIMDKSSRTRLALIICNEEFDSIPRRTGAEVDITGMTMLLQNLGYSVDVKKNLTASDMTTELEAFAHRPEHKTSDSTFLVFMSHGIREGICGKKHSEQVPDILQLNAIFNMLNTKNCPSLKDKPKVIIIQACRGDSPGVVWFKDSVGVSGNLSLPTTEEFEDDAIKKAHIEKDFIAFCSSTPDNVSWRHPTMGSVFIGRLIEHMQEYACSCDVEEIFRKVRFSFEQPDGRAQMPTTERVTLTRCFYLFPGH

Carbonic anhydrase 2 = Carbonic anhydrase 2 (Homo sapiens, UniProt P00918); assay: DRUGMATRIX: Carbonic Anhydrase II enzyme inhibition (substrate: 4-Nitrophenyl acetate (4-NPA)); format: tissue-based, Erythrocyte; details: erythrocyte; Not Active = under 50% inhibition at 10 µM
Mu-type opioid receptor = Mu-type opioid receptor (Homo sapiens, UniProt P35372); assay: DRUGMATRIX: Opiate mu (OP3, MOP) radioligand binding (ligand: [3H] Diprenorphine); format: cell membranes, CHO-K1, Membrane; details: cho-k1; Not Active = under 50% inhibition at 10 µM
Sequence of Mu-type opioid receptor (P35372 whole entry): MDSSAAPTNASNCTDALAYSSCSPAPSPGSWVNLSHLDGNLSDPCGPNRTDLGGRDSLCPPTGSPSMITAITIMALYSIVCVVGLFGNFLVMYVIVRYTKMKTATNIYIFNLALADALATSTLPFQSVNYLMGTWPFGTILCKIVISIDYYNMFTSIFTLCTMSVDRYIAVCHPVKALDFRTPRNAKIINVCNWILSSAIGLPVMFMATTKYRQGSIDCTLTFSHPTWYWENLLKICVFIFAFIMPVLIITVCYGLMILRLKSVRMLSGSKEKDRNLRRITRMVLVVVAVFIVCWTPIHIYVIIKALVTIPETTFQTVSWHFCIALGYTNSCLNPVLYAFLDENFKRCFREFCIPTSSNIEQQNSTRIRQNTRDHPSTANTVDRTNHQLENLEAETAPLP

[6] = biological target: Beta-3 adrenergic receptor (Homo sapiens, UniProt P13945); assay: DRUGMATRIX: Adrenergic beta3 radioligand binding (ligand: [125I] Cyanopindolol); format: cell membranes, HEK293, Membrane; details: hek293; Not Active = under 50% inhibition at 10 µM
Sequence of Beta-3 adrenergic receptor (P13945 whole entry): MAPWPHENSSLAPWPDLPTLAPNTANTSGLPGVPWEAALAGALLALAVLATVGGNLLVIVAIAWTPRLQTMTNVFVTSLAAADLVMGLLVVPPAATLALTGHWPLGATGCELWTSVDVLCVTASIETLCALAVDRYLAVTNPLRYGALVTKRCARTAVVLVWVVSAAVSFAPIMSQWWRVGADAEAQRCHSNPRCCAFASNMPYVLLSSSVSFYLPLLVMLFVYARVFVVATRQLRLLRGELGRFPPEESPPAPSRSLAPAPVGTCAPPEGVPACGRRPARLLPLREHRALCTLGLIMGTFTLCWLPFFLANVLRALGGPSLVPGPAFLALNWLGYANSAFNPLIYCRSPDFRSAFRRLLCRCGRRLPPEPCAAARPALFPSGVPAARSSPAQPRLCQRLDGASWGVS

[7] = DRUGMATRIX: Serotonin (5-Hydroxytryptamine) 5-HT3 radioligand binding (ligand: [3H] GR-65630); format: cell membranes, Membrane; details: hek293; Not Active = under 50% inhibition at 10 µM
[8] = biological target: T5, Type-2 angiotensin II receptor (Homo sapiens, UniProt P50052); format: cell-based; details: cho-k1; further: in other assays of this panel Not Active means under 50% inhibition at 10 µM
T5 sequence (P50052 whole entry): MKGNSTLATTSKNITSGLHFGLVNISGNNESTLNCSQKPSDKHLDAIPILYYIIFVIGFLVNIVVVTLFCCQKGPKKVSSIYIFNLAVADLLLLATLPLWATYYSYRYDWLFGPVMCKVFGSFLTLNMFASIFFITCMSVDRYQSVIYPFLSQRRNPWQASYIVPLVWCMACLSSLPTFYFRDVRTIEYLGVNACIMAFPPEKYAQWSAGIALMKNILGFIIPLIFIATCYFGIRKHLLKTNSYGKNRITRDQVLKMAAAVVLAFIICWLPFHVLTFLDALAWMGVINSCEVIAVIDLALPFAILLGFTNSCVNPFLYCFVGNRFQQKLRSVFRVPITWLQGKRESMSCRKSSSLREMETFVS

[9] = DRUGMATRIX: Phorbol Ester radioligand binding (ligand: [3H] PDBu); format: cell membranes, Mus musculus, ICR, Brain, Membrane; details: Not Active = under 50% inhibition at 10 µM
[10] = DRUGMATRIX: Calcium Channel Type L, Dihydropyridine radioligand binding (ligand: [3H] Nitrendipine); format: cell membranes, Rattus norvegicus, Wistar, Cerebral cortex, Membrane; details: Not Active = under 50% inhibition at 10 µM

Compound: Oc1c(I)cc(I)c2cccnc12 [IODOQUINOL]
- IC50 (Adenosine receptor A3; read-out: IC50): 933 nM
- Ki (Adenosine receptor A3): 527 nM
- IC50 [1]: Not Active
- IC50 [2]: Not Active
- Ki [2]: Not Active
- IC50 (Vasopressin V1a receptor): Not Active
- IC50 (B2 bradykinin receptor): Not Active
- IC50 ([3]; read-out: IC50): 294 nM
- IC50 ([4]; read-out: IC50): 8580 nM
- IC50 [5]: Not Active
- Ki [5]: Not Active
- IC50 (Caspase-1): Not Active
- IC50 (Carbonic anhydrase 2): Not Active
- IC50 (Mu-type opioid receptor): Not Active
- IC50 [6]: Not Active
- IC50 [7]: Not Active
- Ki [7]: Not Active
- IC50 [8]: Not Active
- IC50 [9]: Not Active
- Ki [9]: Not Active
- IC50 [10]: Not Active
- Ki [10]: Not Active

Compound: NNC(=O)c1ccncc1 [ISONIAZID]
- IC50 (Adenosine receptor A3; cho-k1): Not Active
- IC50 [1]: Not Active
- IC50 [2]: Not Active
- Ki [2]: Not Active
- IC50 (Vasopressin V1a receptor): Not Active
- IC50 (B2 bradykinin receptor): Not Active
- IC50 [3]: Not Active
- IC50 ([4]; insect cells): Not Active
- IC50 [5]: Not Active
- Ki [5]: Not Active
- IC50 (Caspase-1): Not Active
- IC50 (Carbonic anhydrase 2): Not Active
- IC50 (Mu-type opioid receptor): Not Active
- IC50 [6]: Not Active
- IC50 [7]: Not Active
- Ki [7]: Not Active
- IC50 [8]: Not Active
- IC50 [9]: Not Active
- Ki [9]: Not Active
- IC50 [10]: Not Active
- Ki [10]: Not Active

Compound: CC1=C(/C=C/C(C)=C/C=C/C(C)=C\C(=O)O)C(C)(C)CCC1 [ISOTRETINOIN]
- IC50 (Adenosine receptor A3; read-out: IC50): 4170 nM
- Ki (Adenosine receptor A3): 2360 nM
- IC50 [1]: Not Active
- IC50 [2]: Not Active
- Ki [2]: Not Active
- IC50 (Vasopressin V1a receptor): Not Active
- IC50 (B2 bradykinin receptor): Not Active
- IC50 ([3]; read-out: IC50): 462 nM
- IC50 ([4]; insect cells): Not Active
- IC50 [5]: Not Active
- Ki [5]: Not Active
- IC50 (Caspase-1): Not Active
- IC50 (Carbonic anhydrase 2): Not Active
- IC50 (Mu-type opioid receptor): Not Active
- IC50 [6]: Not Active
- IC50 [7]: Not Active
- Ki [7]: Not Active
- IC50 [8]: Not Active
- IC50 [9]: Not Active
- Ki [9]: Not Active
- IC50 [10]: Not Active
- Ki [10]: Not Active

Compound: CO[C@@H]1[C@@H](O[C@@H]2O[C@H](C)[C@@H](O[C@H]3C[C@@](C)(O)[C@@H](OC(=O)CC(C)C)[C@H](C)O3)[C@H](N(C)C)[C@H]2O)[C@@H](CC=O)C[C@@H](C)[C@@H](O)/C=C/C=C/C[C@@H](C)OC(=O)C[C@H]1O [KITASAMYCIN]
- IC50 (Adenosine receptor A3; cho-k1): Not Active
- IC50 [1]: Not Active
- IC50 [2]: Not Active
- Ki [2]: Not Active
- IC50 (Vasopressin V1a receptor): Not Active
- IC50 (B2 bradykinin receptor): Not Active
- IC50 [3]: Not Active
- IC50 ([4]; insect cells): Not Active
- IC50 [5]: Not Active
- Ki [5]: Not Active
- IC50 (Caspase-1): Not Active
- IC50 (Carbonic anhydrase 2): Not Active
- IC50 (Mu-type opioid receptor): Not Active
- IC50 [6]: Not Active
- IC50 [7]: Not Active
- Ki [7]: Not Active
- IC50 [8]: Not Active
- IC50 [9]: Not Active
- Ki [9]: Not Active
- IC50 [10]: Not Active
- Ki [10]: Not Active

Compound: CC(CCc1ccccc1)NCC(O)c1ccc(O)c(C(N)=O)c1 (configuration not stated) [LABETALOL]
- IC50 (Adenosine receptor A3; cho-k1): Not Active
- IC50 [1]: Not Active
- IC50 [2]: Not Active
- Ki [2]: Not Active
- IC50 (Vasopressin V1a receptor): Not Active
- IC50 (B2 bradykinin receptor): Not Active
- IC50 [3]: Not Active
- IC50 ([4]; insect cells): Not Active
- IC50 [5]: Not Active
- Ki [5]: Not Active
- IC50 (Caspase-1): Not Active
- IC50 (Carbonic anhydrase 2): Not Active
- IC50 (Mu-type opioid receptor): Not Active
- IC50 [6]: Not Active
- IC50 [7]: Not Active
- Ki [7]: Not Active
- IC50 [8]: Not Active
- IC50 [9]: Not Active
- Ki [9]: Not Active
- IC50 [10]: Not Active
- Ki [10]: Not Active
